Data published in patent publication US7579488B2 (Eli Lilly and Company, priority 2003, dated 2009).
Values joined by “and” are separate entries in the source; they are usually repeats but may differ in a detail not shown here. Equal values may be shown once. Read-outs that look alike come from different tables or passages of the source. Values belong to the molecule of their own block, whether it stands above or below them.

Columns and labels:
female DBF mice = test: Mouse hypercalcemia assay; settings: oral gavage for 6 days
Description: The Mouse Hypercalcemia Assay
The Mouse Hypercalcemia Assay is a six day hypercalcemia test for toxicity and selectivity.
(4) Materials and Method for the Mouse Hypercalcemia Assay:
Weanling, virus-antibody-free, five to six weeks old female DBF mice (Harlan, Indianapolis, Ind.) are used for all the studies. Animals are allowed to acclimate to local vivarium conditions for 2 days. […] The animals then are divided into groups with 4-5 mice per group. Different doses of test compounds prepared in 10% Ethanol and 90% sesame oil are administered to mice orally via gavage for 6 days. 1α-25(OH)2D3 0.5 μg/kg/d was also given to one group of mice as the positive control. […] Raw data of group differences is assessed by analysis of variance (ANOVA) using Fisher's protected least significant difference (PLSD) where the significance level was P<0.05.

rat osteocalcin promoter = test: OCN (osteocalcin) promoter assay; format: cell-based; settings: RG-15 (ROS 17/2.8) cells
Description: 3. The OCN (Osteocalcin) Promoter Assay
The OCN Promoter Assay is an indicator and marker for osteoporosis. […] Preferred assay results are less than 50 nM.
(3) Materials and Method for The OCN Promoter Assay:
The activation of osteocalcin by VDR ligands was evaluated in a rat osteoblast-like cell line RG-15 (ROS 17/2.8) stably expressing rat osteocalcin promoter fused with luciferase reporter gene. […] Confluent RG-15 cells maintained in DMEM/F-12 medium (3:1) containing 5% FBS, 300 μg/ml G418 and at 37° C. under 5% CO2/95% air atmosphere were trypsinized (0.25% trypsin) and plated into white opaque 96-well cell culture plates (25000 cells/well). After 24 hr, cells (in DMEM/F-12 medium+2% FBS) were treated with various concentrations of compounds, dissolved in DMSO. The final DMSO concentration remained at 0.01% (v/v). After 48 hr treatment, the medium was removed, cells were lysed with 50 μl of lysis buffer (From Luciferase reporter assay system, Roche Diagnostics, Indianapolis, Ind.) and assayed for luciferase activity using the Luciferase Reporter Gene Assay kit from Boehringer Mannheim as per manufacturer's specifications.

VDR = biological target: T1, VDR (Homo sapiens, UniProt P11473); test: VDR CTF (Caco-2 cell co-transfection) assay; format: cell-based; settings: Caco-2 cells, pGal4-VDR-LBD co-transfection, luciferase; several values separated by /
T1 construct: the receptor expression vector pGal4-VDR-LBD (10 ng); expressed in transfected cells; host or cells: Caco-2 cells
T1 sequence (P11473 127-423 limits assumed): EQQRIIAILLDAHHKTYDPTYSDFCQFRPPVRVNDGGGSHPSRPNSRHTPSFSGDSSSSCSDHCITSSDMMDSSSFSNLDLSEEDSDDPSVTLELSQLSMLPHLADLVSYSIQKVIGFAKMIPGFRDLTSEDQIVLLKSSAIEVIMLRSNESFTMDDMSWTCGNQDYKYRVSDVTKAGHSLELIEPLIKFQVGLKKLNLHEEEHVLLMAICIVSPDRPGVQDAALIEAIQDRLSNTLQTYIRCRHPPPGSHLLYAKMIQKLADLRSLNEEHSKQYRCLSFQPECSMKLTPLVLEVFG
Description: 2. The Caco-2 Cell Co-Transfection Assay:
The Caco-2 cell assay is an indicator for the undesirable condition of hypercalcemia. This co-transfection assay is a surrogate assay for in vivo calcemic activity of VDR ligands. […] Preferred assay results are greater than 1000 nM.
(2) Materials and Method for the Caco-2 Cell Assay:
Caco-2 cells, grown in phenol red free, DMEM (Invitrogen, Carlsbad, Calif.) containing 10% charcoal-stripped FCS (Hyclone, Logan, Utah), were transfected with Fugene 6 reagent (Roche Diagnostics, Indianapolis, Ind.). Cells (5000/well) were plated 18 h before transfection in a 96 well plate. The Cells were transfected with Gal4-responsive reporter pFRLuc (150 ng, Stratagene, La Jolla Calif.) and the receptor expression vector pGal4-VDR-LBD (10 ng), along with Fugene 6 reagent (0.2 μl/well). The DNA-Fugene complex was formed by incubating the mixture for 30 min at room temperature. The cells were transfected in triplicate for 5 h, and treated with various concentrations of VDR ligands (form 0.01 nM to 10,000 nM concentration range) 18 h post-transfection. The luciferase activity was quantified using Steady-Glo reagent kit (Promega, Madison, Wis.) as per manufacturer's specifications.

KERtr cells = test: Keratinocyte proliferation assay; format: cell-based; settings: Homo sapiens, read-out: Kera. Prolif. IC50
Description: 5. The Keratinocyte Proliferation Assay
This Assay is indicative for the treatment of psoriasis.
(5) The Keratinocyte Proliferation Assay:
KERtr cells (Human skin keratinocyte transformed with a retrovirus vector, obtained from ATCC) were plated in 96-well flat-bottomed plates (3000 cells/well) in 100 μl keratinocyte serum free medium supplemented with bovine pituitary extract in the absence of EGF (Life Technologies, Rockville, Md.) and incubated at 37° C. for two days. The cells were treated with various concentrations of VDR ligands (ten-fold serial dilution from 10,000 nM to 0.1 nM in triplicate), dissolved in 100 μl keratinocyte serum free medium supplemented with bovine pituitary extract in the absence of EGF and incubated at 37° C. for 72 hr. […] Potency values (IC50) values were determined as the concentration (nM) of compound that elicited a half-maximal response.

RXR-VDR heterodimer = biological target: T2, RXR-VDR heterodimer (Homo sapiens, UniProt P11473); test: RXR-VDR heterodimerization assay (SaOS-2 cells); format: cell-based; settings: Gal4-RXR-DEF/VP16-VDR-LBD luciferase reporter, several values in a cell separated by /
T2 construct: Add the Gal4-RXR-DEF and VP16-VDR-LBD; expressed in transfected cells; host or cells: SaOS-2 cells
T2 sequence (P11473 127-423 limits assumed): T1 sequence (P11473 127-423 limits assumed)
T2 sequence (P19793 201-462 partner limits assumed): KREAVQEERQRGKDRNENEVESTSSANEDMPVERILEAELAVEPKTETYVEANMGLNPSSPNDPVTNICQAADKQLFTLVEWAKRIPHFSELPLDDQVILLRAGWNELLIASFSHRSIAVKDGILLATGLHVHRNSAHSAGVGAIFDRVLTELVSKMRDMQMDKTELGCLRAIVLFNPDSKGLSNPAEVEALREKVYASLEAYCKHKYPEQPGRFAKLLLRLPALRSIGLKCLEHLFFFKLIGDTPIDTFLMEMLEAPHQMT
Description: 1. The RXR-VDR Heterodimer Assay:
This assay provides the VDR activity of a test compound.
(1) Materials and Method for RXR-VDR Heterodimerization Assay:
Luciferase Assay Reagent: • Use Steady-Glo Luciferase Reagent from Promega (Cat #E2550) Consists of: a. E2533 Assay Substrate, lyopholized product and b. E2543 Assay Buffer. • Thaw at room temperature • Store Cell Harvesting Aspirate media from culture flask, rinse cells with HBSS and aspirate. Add trypsin and incubate. When cells appear detached, resuspend cells in growth media. Transfer into a new flask with fresh growth media for passaging the cells. Plate well plates and two extra plates A. Cell Count Mix the cell suspension using pipette Use Hematocytometer to count the cells Load cell suspension onto the hemocytometer chamber Count cells. […] In sterile flask add cell suspension to plating media. Mix. Add cells/well. Place the cells in the incubator. Cells should be about 75% confluent prior to transfection. DAY 2: Transfection Step 1: DNA and Media Add plain DMEM media to tubes for mixing the DNA Add the Reporter gene pFR-LUC Add the Gal4-RXR-DEF and VP16-VDR-LBD Step 2: FuGENE and Media Prepare plain DMEM media in a ubes for mixing FuGENE Add FuGENE 6 Transfection Reagent Incubate Step 3: FuGENE, DNA and Media Complex Add FuGENE Media complex from step 2 to DNA Media complex from step 1 Incubate Step 4: FuGENE, DNA and Media Complex to-well plate Add FuGENE-DNA-Media complex from step 3 to each plate Incubate. […] Day 4: Luciferase Assay Read the plates after drug treatment Remove part of media from all the wells and leave remainder Add Steady-Glo Luciferase Reagent mixture/wells Incubate Count each well using a Luminescence counter, Top Count NXT by Packard
Set a delay between plates to reduce the background.

[1] = serum ionized calcium 6 hours after last dosing
[2] = 48 hr treatment, luciferase, several values separated by /
[3] = Rattus norvegicus, 48 h, 48 hr treatment, luciferase, several values separated by /
[4] = 72 h, BrdU incorporation, several values separated by /
[5] = Rattus norvegicus, comparison compounds

SMILES: CCC(CC)(c1ccc(OCC(=O)C(C)(C)C)c(C)c1)c1ccc2oc(C(=O)O)c(C)c2c1 [Ex 34, 5-{1-[4-(3,3-Dimethyl-2-oxo-butoxy)-3-methyl-phenyl]-1-ethyl-propyl}-3-methyl-benzofuran-2-carboxylic acid]
Mouse Hypercal (female DBF mice; [1]): >3000 µg/kg/day
EC50 (rat osteocalcin promoter; [2]): 0.021 µM
EC50 (rat osteocalcin promoter; [3]): 0.013 µM
EC50 (VDR): 896 nM

SMILES: CCC(CC)(c1ccc(OCC(O)C(C)(C)C)c(C)c1)c1ccc2oc(C(=O)O)c(C)c2c1 (centres unmarked) [Ex 35, 5-{1-Ethyl-1-[4-(2-hydroxy-3,3-dimethyl-butoxy)-3-methyl-phenyl]-propyl}-3-methyl-benzofuran-2-carboxylic acid]
EC50 (rat osteocalcin promoter; [2]): 0.021 µM
EC50 (rat osteocalcin promoter; [3]): 0.013 µM
IC50 (KERtr cells; [4]): 0.7 µM
EC50 (VDR): 753 nM

SMILES: CCC(CC)(c1ccc(OCC(O)C(C)(C)C)c(C)c1)c1cc2cc(C(=O)NCC(=O)O)ccc2o1 (centres unmarked) [Ex. 8, [(2-{1-Ethyl-1-[4-(2-hydroxy-3,3-dimethyl-butoxy)-3-methyl-phenyl]-propyl}-benzofuran-5-carbonyl)-amino]-acetic acid]
EC50 (rat osteocalcin promoter; [3]): 0.0006 µM
EC50 (RXR-VDR heterodimer): 0.006 µM and 0.002 µM
IC50 (KERtr cells; [4]): 0.0003 µM
EC50 (VDR): 120 nM

Mouse Hypercal (female DBF mice; comparison compounds): 1000 µg/kg/day
EC50 (rat osteocalcin promoter; [5]): 0.0311 µM
SMILES: CCC(CC)(c1ccc(OCC(=O)C(C)(C)C)c(C)c1)c1ccc(OCC(=O)C(C)(C)C)c(C)c1 [DD, reference compound]
IC50 (KERtr cells; comparison compounds): 1.06 µM

SMILES: CCC(CC)(c1ccc(OCC(=O)C(C)(C)C)c(C)c1)c1ccc2oc(C(=O)NCC(=O)O)c(C)c2c1 [Ex 38, [(5-{1-[4-(3,3-dimethyl-2-oxo-butoxy)-3-methyl-phenyl]-1-ethyl-propyl}-3-methyl-benzofuran-2-carbonyl)-amino]-acetic acid]
Mouse Hypercal (female DBF mice; [1]): >30 µg/kg/day
EC50 (rat osteocalcin promoter; [3]): 0.0005 µM
IC50 (KERtr cells; [4]): 0.022 µM
EC50 (VDR): 314 nM

SMILES: CCC(CC)(c1ccc(OCC(O)C(C)(C)C)c(C)c1)c1ccc2oc(C(=O)NCC(=O)O)cc2c1 (centres unmarked) [Ex 33, [(5-{1-ethyl-1-[4-(2-hydroxy-3,3-dimethyl-butoxy)-3-methyl-phenyl]-propyl}-benzofuran-2-carbonyl)-amino]-acetic acid]
EC50 (rat osteocalcin promoter; [3]): 0.0004 µM
EC50 (RXR-VDR heterodimer): 0.009 µM
EC50 (VDR): 178 nM

Mouse Hypercal (female DBF mice; comparison compounds): 1000 µg/kg/day
EC50 (rat osteocalcin promoter; [5]): 0.341 µM
SMILES: CCC(CC)(c1ccc(OCC(=O)C(C)(C)C)c(C)c1)c1ccc(OC[C@H](O)C(C)(C)C)c(C)c1 [EE, reference compound]

SMILES: CCC(CC)(c1ccc(OCC(O)C(C)(C)C)c(C)c1)c1ccc2oc(C(=O)N(C)C)c(C)c2c1 (centres unmarked) [Ex 37, 5-{1-ethyl-1-[4-(2-hydroxy-3,3-dimethyl-butoxy)-3-methyl-phenyl]-propyl}-3-methyl-benzofuran-2-carboxylic acid dimethylamide]
EC50 (RXR-VDR heterodimer): 0.777 µM and 0.133 µM
IC50 (KERtr cells; [4]): > 1 µM
EC50 (VDR): 865 nM

SMILES: CCC(CC)(c1ccc(OCC(=O)C(C)(C)C)c(C)c1)c1cc2cc(C(=O)N(C)C)ccc2o1 [Ex. 5, 2-{1-[4-(3,3-Dimethyl-2-oxo-butoxy)-3-methyl-phenyl]-1-ethyl-propyl}-benzofuran-5-carboxylic acid dimethylamide]
EC50 (rat osteocalcin promoter; [2]): 0.079 µM
EC50 (rat osteocalcin promoter; [3]): 0.106 µM
EC50 (VDR): 1200 nM

SMILES: CCC(CC)(c1ccc(OCC(=O)C(C)(C)C)c(C)c1)c1cc2ccc(C(=O)NCC(=O)O)cc2o1 [Ex 20, [(2-{1-[4-(3,3-Dimethyl-2-oxo-butoxy)-3-methyl-phenyl]-1-ethyl-propyl}-benzofuran-6-carbonyl)-amino]-acetic acid]
EC50 (RXR-VDR heterodimer): 0.264 µM and 0.068 µM
IC50 (KERtr cells; [4]): 1 µM
EC50 (VDR): 773 nM

SMILES: CCC(CC)(c1ccc(OCC(O)C(C)(C)C)c(C)c1)c1cc2cc(C(=O)O)ccc2o1 (centres unmarked) [Ex. 4, 2-{1-Ethyl-1-[4-(2-hydroxy-3,3-dimethyl-butoxy)-3-methyl-phenyl]-propyl}-benzofuran-5-carboxylic acid]
EC50 (VDR): 312 nM and 368 nM

SMILES: CCC(CC)(c1ccc(OCC(O)C(C)(C)C)c(C)c1)c1cc2cc(C(=O)Nc3nn[nH]n3)ccc2o1 (centres unmarked) [Ex. 13, 2-{1-Ethyl-1-[4-(2-hydroxy-3,3-dimethyl-butoxy)-3-methyl-phenyl]-propyl}-benzofuran-5-carboxylic acid (2H-tetrazol-5-yl)-amide]
EC50 (rat osteocalcin promoter; [3]): 0.003 µM
IC50 (KERtr cells; [4]): > 1 µM
EC50 (VDR): 602 nM

SMILES: CCC(CC)(c1ccc(OCC(=O)C(C)(C)C)c(C)c1)c1cc(C)c2oc(C(=O)NCC(=O)O)cc2c1 [Ex 28, [(5-{1-[4-(3,3-dimethyl-2-oxo-butoxy)-3-methyl-phenyl]-1-ethyl-propyl}-7-methyl-benzofuran-2-carbonyl)-amino]-acetic acid]
Mouse Hypercal (female DBF mice; [1]): >1000 µg/kg/day
EC50 (rat osteocalcin promoter; [3]): 0.004 µM
IC50 (KERtr cells; [4]): 0.011 µM

SMILES: CCC(CC)(c1ccc(OCC(O)C(C)(C)C)c(C)c1)c1ccc2oc(C(=O)NCC(=O)O)c(C)c2c1 (centres unmarked) [Ex 39, [(5-{1-ethyl-1-[4-(2-hydroxy-3,3-dimethyl-butoxy)-3-methyl-phenyl]-propyl}-3-methyl-benzofuran-2-carbonyl)-amino]-acetic acid]
EC50 (rat osteocalcin promoter; [3]): 0.0004 µM
EC50 (RXR-VDR heterodimer): 0.138 µM
IC50 (KERtr cells; [4]): 0.019 µM
EC50 (VDR): 419 nM
